# From ChEMBL document CHEMBL1201862, “PubChem BioAssay data set” (2004)
# Active and inactive are the calls of the source.
# Key:
# [1] = intracellular Trypanosoma cruzi inhibitors in host cells – cell-based, plate reader, cherry-pick samples, set 3, dose response (AID 651818); assay type: functional;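 note: compounds incubated with infected cells for about four days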
# [2] = biological target: T1, Protein skinhead-1 (Caenorhabditis elegans, UniProt P34707); assay type: functional
# T1 sequence (P34707 whole entry): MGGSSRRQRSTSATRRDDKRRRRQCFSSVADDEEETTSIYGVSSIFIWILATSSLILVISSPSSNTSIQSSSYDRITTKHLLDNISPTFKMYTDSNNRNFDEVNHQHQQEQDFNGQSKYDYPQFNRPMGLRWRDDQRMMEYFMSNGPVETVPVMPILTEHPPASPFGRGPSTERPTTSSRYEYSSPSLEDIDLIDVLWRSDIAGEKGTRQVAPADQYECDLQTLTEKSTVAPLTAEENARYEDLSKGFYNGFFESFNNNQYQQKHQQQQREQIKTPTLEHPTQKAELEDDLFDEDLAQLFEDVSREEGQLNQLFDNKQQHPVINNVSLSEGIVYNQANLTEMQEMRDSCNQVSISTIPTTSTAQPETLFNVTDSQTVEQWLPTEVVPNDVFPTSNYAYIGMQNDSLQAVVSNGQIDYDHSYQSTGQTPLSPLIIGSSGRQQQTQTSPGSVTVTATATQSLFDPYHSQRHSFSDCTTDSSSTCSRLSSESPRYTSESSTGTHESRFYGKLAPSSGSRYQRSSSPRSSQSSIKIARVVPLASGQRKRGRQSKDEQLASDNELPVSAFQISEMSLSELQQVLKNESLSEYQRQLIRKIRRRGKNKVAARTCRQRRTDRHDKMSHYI
# [3] = Luminescence Cell-Based Dose Confirmation HTS to Identify Activators of 5'UTR Stem-Loop Driven Alpha-Synuclein mRNA Translation in H4 Neuroglioblastoma Cells. [Related pubchem assays: 1829 (Project Summary), 1814 (Primary HTS)]; assay type: functional
# [4] = Luminescence Cell-Based Dose Response HTS to Identify Activators of Luciferase Translation or Activity in H4 […] Cells. [Related pubchem assays: 1829 (Project Summary), 1814 (Primary HTS)]; assay type: functional
# [5] = system: H4; test: Luminescence Cell-Based Dose Response HTS to Identify Activators of 5'UTR Stem-Loop Driven Prion Protein mRNA Translation in H4 Neuroglioblastoma Cells. [Related pubchem assays: 1829 (Project Summary), 1814 (Primary HTS)]; assay type: functional; settings: Homo sapiens
# [6] = biological target: T2, Short transient receptor potential channel 4 (Mus musculus, UniProt Q9QUQ5); test: block of DAMGO-driven TRPC4 calcium entry – cell-based, HEK293 TRPC4/mu-opioid, Fluo-4 calcium, dose response (AID 434942); assay type: functional;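 note: potency of inhibitors blocking the TRPC4 calcium response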
# T2 sequence (Q9QUQ5 whole entry): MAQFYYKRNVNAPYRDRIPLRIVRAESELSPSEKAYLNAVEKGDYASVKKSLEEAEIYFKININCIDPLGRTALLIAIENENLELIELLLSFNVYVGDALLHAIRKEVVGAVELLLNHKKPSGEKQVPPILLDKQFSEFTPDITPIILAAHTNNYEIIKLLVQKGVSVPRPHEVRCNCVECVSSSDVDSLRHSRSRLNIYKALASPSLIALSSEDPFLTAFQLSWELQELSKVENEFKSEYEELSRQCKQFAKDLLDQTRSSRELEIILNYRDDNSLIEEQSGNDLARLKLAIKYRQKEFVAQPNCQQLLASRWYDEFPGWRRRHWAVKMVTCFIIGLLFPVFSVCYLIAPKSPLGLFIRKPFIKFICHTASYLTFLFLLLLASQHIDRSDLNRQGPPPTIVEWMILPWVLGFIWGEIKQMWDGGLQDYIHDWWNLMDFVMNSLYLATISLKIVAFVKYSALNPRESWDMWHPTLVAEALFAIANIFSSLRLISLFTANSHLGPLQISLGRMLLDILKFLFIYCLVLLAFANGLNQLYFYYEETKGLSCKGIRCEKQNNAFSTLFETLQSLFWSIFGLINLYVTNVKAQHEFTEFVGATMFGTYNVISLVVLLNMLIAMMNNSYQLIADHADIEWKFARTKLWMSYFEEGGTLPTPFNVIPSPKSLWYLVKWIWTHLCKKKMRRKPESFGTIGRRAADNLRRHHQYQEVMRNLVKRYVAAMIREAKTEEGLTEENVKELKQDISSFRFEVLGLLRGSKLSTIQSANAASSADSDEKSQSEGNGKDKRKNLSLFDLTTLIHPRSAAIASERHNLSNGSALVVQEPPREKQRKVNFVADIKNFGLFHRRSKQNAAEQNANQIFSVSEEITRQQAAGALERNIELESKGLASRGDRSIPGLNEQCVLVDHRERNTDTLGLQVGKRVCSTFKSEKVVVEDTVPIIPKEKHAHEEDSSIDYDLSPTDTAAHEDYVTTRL
# [7] = biological target: T3, Long-chain-fatty-acid--AMP ligase FadD28 (Mycobacterium tuberculosis, UniProt P9WQ59); test: Fluorescence polarization aasay to screen for inhibitors that compete for the binding of FadD28 to a bisubstrate Measured in Biochemical System Using Plate Reader - 2147-01_Inhibitor_Dose_CherryPick_Activity.; assay type: functional, Mycobacterium tuberculosis H37Rv
# T3 sequence (P9WQ59 whole entry): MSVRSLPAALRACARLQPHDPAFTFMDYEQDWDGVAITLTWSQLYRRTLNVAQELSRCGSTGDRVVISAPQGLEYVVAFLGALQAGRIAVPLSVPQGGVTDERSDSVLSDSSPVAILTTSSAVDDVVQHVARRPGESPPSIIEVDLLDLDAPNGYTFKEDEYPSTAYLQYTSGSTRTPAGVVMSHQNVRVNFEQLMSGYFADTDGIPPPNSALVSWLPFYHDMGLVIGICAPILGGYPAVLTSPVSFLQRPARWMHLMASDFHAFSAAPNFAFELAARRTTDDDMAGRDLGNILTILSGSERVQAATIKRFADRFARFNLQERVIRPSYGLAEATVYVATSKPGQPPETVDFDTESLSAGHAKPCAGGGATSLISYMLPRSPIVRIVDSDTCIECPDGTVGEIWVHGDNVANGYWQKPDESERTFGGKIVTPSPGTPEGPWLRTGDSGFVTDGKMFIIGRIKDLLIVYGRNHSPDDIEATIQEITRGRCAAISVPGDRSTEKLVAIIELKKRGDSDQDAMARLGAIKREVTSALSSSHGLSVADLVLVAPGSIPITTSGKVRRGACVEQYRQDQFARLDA
# [8] = system: BJ; test: BJ-TERT fibroblast viability loss – cell-based, RAS-independent, luminescence, dose response (AID 1933); assay type: functional; settings: Homo sapiens
# [9] = system: BJ; test: cells; assay type: functional, cell-based; settings: Homo sapiens
# [10] = system: BJ; test: BJ-TERT-LT-ST fibroblast viability loss – cell-based, RAS-independent, luminescence, dose response (AID 1935); assay type: functional; settings: Homo sapiens;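 note: BJ fibroblasts immortalized with TERT plus LT and ST oncogenes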
# [11] = DRD fibroblast viability loss – cell-based, non-viral oncogenic, luminescence, dose response (AID 1934); assay type: functional; settings: Homo sapiens
# [12] = NIH-3T3 fibroblast cytotoxicity, dose response, cytotoxicity control, cell-based, fluorescence, Alamar Blue, secondary assay (AID 2327); assay type: functional;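 note: NIH-3T3 mouse fibroblasts cultured with fluconazole at 8 µg/mL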
# [13] = fluconazole-exposed Candida albicans growth modulators – fluorescence, retest, confirmation (AID 2467); assay type: functional, cell-based
# [14] = biological target: Large T antigen (Simian virus 40, UniProt P03070); assay type: functional, Betapolyomavirus macacae;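 note: Confirmatory-stage PubChem screen for compounds that inhibit SV40 T antigen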
# [15] = biological target: DNA dC->dU-editing enzyme APOBEC-3G (Homo sapiens, UniProt Q9HC16); test: Dose Response confirmation of small molecule APOBEC3G DNA Deaminase Inhibitors via a fluorescence-based single-stranded DNA deaminase assay. [Related pubchem assays (depositor defined):AID493012, AID493028]; assay type: functional
# [16] = biological target: FAD-linked sulfhydryl oxidase ALR (Homo sapiens, UniProt P55789); test: ALR-catalysed DTT oxidation blockers – biochemical, H2O2 detection, luminescence, cherry-pick, dose response (AID 493248)
# [17] = system: INS1; test: INS-1E survival protection against cytokine death – cell-based, luminescence, retest, dose response (AID 449756); assay type: functional; settings: Rattus norvegicus;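 note: cell death triggered by IL-1 beta plus TNF-alpha plus IFN-gamma mixture; protective hits raise ATP signal compared with cytokine alone wells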
# [18] = biological target: Fatty acid synthase (Homo sapiens, UniProt P49327); test: inhibition of human FAS-TE enzyme activity – biochemical, kinetic fluorescence intensity, dose response (AID 624326); assay type: functional;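 note: rate of fluorescence rise from hydrolysis of a fluorogenic O-methyl fluorescein ester substrate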
# [19] = biological target: Nonstructural protein 1 (Influenza A virus, UniProt Q194T2); assay type: functional, Influenza A virus (A/California/07/2009(H1N1))
# [20] = blockers of HIV-1 envelope-mediated cell-cell fusion – cherry-pick, dose response (AID 652057); assay type: functional, cell-based
# [21] = HIV-1 AD8 envelope cell-cell fusion blockers – cherry-pick, dose response (AID 652062); assay type: functional, cell-based;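 note: luciferase signal from cell-cell fusion driven by HIV-1 clade B AD8 Env; potency is for inhibitors of fusion seen as a drop in luminescence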
# [22] = biological target: Induced myeloid leukemia cell differentiation protein Mcl-1 (Homo sapiens, UniProt Q07820); assay type: functional
# [23] = biological target: T4, Polyadenylate-binding protein 1 (Homo sapiens, UniProt P11940); test: MLLE binding blockers, Cy5 peptide tracer – biochemical, fluorescence polarization, Cy5-PAM2 peptide, secondary, miRNA deadenylation inhibitor project, dose response (AID 602260); assay type: functional; settings: read-out: IC50_Mean
# [24] = biological target: T4, Polyadenylate-binding protein 1; test: MLLE domain peptide-binding blockers, IC50 – biochemical, fluorescence polarization, FITC-PAM2 peptide, dose response (AID 602259); assay type: functional; settings: read-out: IC50_Mean
# T4 sequence (P11940 whole entry, the tested form may be a part): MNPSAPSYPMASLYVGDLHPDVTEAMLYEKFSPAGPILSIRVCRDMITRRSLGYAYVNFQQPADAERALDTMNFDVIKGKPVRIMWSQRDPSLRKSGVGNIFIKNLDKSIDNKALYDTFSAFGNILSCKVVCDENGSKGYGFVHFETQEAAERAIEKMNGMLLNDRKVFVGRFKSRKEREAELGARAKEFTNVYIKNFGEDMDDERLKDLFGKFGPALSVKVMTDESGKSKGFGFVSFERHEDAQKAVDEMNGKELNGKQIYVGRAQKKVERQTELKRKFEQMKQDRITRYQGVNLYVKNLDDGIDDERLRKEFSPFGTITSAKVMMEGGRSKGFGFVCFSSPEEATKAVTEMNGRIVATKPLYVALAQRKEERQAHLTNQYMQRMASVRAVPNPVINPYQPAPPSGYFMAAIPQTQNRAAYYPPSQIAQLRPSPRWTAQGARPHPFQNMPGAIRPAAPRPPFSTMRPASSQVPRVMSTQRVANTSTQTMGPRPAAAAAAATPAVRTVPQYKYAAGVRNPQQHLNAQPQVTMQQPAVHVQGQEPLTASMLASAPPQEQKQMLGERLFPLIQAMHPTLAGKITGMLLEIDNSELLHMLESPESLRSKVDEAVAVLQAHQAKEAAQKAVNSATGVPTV
# Sequence of DNA dC->dU-editing enzyme APOBEC-3G (Q9HC16 whole entry): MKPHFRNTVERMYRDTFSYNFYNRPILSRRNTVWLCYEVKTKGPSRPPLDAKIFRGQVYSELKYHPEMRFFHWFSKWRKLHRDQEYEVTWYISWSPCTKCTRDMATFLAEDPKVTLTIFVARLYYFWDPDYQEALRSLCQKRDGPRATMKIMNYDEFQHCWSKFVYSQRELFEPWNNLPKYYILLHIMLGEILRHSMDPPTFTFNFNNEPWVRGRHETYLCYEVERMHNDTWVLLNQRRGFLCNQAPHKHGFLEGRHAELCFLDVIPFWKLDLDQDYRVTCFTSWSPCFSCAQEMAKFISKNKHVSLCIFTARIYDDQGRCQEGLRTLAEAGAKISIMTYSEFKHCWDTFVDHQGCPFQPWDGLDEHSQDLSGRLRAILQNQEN
# Sequence of Nonstructural protein 1 (Q194T2 whole entry, the tested form may be a part): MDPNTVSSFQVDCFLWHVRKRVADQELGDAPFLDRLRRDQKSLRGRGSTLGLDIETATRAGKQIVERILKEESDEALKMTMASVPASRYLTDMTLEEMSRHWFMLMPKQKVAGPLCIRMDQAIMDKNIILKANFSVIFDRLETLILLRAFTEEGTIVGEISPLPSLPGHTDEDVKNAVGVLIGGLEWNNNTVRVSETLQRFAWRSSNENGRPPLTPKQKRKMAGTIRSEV
# Sequence of Large T antigen (P03070 whole entry): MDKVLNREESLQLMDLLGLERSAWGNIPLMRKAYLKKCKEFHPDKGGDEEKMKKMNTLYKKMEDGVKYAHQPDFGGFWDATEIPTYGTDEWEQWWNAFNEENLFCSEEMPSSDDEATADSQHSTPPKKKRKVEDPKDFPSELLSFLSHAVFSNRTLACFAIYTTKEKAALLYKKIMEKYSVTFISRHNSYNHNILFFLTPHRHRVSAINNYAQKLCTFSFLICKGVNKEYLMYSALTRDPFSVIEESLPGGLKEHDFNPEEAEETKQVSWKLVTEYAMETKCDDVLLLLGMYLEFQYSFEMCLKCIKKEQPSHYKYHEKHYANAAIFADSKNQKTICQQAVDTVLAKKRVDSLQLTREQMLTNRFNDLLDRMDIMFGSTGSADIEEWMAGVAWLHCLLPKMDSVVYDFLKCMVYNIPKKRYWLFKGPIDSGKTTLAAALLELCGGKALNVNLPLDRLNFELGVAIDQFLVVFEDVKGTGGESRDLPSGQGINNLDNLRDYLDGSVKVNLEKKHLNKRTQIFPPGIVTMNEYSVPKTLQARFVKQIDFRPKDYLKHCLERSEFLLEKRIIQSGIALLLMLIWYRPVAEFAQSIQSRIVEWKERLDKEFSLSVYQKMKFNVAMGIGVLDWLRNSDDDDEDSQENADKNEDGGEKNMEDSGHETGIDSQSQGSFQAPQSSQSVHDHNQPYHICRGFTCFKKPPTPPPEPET
# Sequence of Fatty acid synthase (P49327 whole entry): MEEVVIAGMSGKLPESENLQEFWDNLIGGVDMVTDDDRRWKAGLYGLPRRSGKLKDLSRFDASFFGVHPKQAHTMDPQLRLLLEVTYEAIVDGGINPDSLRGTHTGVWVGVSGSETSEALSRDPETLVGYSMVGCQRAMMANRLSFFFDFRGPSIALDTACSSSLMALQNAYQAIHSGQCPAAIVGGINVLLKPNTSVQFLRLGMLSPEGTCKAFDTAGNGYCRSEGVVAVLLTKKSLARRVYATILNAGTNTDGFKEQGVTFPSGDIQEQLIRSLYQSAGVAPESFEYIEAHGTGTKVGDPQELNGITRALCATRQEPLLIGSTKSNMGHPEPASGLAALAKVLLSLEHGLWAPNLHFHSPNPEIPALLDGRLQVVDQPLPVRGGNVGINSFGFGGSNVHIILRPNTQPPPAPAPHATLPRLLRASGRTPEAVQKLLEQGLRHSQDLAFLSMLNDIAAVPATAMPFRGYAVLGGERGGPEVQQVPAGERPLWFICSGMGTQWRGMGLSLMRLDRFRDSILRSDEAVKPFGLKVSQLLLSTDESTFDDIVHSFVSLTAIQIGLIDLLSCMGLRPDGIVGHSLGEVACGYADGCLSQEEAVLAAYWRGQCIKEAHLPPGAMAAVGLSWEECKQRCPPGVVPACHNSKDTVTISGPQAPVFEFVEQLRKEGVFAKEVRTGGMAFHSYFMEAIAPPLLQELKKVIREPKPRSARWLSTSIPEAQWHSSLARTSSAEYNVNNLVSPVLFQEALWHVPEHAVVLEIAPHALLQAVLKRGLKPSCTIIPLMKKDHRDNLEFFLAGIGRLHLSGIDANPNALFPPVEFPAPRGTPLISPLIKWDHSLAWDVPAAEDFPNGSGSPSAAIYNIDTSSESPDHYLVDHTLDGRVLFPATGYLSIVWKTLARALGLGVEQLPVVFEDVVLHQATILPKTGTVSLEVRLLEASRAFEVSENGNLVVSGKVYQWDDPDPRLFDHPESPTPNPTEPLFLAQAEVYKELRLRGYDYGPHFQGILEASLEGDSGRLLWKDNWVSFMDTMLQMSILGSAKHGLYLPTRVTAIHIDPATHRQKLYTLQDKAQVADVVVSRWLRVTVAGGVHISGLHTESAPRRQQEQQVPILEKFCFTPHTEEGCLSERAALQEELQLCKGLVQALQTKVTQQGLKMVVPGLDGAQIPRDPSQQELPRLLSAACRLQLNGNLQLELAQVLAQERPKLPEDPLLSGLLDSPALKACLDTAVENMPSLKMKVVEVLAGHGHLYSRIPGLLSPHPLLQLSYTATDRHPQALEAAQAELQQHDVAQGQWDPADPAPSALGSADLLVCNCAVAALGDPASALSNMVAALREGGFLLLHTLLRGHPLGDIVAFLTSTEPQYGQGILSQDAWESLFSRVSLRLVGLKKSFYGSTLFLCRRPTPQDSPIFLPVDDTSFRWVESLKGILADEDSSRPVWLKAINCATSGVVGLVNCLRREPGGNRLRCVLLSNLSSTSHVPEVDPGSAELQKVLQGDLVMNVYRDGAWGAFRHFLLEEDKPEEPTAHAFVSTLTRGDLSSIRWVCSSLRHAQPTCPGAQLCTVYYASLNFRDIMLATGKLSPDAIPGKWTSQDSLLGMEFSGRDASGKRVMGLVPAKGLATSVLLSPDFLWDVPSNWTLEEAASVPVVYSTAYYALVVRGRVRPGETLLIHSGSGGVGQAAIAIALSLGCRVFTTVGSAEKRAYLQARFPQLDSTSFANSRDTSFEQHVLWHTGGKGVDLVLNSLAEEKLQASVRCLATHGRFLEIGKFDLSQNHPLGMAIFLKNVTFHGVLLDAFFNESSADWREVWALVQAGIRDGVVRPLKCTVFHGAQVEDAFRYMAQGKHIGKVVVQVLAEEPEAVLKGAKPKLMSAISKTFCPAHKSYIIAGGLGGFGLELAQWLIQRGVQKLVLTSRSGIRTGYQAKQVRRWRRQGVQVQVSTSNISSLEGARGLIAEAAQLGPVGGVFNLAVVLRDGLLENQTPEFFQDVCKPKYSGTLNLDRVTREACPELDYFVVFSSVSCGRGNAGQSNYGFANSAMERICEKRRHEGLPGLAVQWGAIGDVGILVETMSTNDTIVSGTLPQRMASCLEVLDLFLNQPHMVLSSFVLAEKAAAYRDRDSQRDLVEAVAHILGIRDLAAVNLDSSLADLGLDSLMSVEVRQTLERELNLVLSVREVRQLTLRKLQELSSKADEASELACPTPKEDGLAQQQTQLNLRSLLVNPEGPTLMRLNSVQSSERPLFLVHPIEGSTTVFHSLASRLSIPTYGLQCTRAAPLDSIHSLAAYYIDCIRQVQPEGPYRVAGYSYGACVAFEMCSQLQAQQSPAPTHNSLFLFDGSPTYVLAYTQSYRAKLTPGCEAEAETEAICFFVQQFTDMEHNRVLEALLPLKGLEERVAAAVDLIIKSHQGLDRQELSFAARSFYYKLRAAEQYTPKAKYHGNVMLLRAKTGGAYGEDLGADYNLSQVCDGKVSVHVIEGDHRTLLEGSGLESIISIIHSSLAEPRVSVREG
# Sequence of Induced myeloid leukemia cell differentiation protein Mcl-1 (Q07820 whole entry): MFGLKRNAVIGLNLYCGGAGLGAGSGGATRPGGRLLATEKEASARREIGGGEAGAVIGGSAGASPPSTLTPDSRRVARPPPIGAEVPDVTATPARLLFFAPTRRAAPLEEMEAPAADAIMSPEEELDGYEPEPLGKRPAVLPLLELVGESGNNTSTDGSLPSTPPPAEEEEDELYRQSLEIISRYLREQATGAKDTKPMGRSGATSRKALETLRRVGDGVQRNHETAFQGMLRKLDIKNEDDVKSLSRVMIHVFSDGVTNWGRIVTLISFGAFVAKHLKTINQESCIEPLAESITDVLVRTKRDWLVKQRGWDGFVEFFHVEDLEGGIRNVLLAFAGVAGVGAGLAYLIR
# Sequence of FAD-linked sulfhydryl oxidase ALR (P55789 whole entry): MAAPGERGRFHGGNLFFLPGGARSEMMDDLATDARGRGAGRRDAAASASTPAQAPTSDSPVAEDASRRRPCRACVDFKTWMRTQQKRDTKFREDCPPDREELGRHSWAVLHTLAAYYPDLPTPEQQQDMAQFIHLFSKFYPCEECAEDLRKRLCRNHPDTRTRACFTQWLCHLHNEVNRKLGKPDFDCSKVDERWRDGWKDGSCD
smiles,measurement,setting,value
C[C@@H]1CN([C@H](C)CO)C(=O)c2cccc(NS(=O)(=O)c3cccs3)c2O[C@@H]1CN(C)C(=O)Nc1ccc(C(F)(F)F)cc1,AC50,[1],8.07 µM (active)
CCc1nc2ccccc2n1CC(=O)N(C(C)CC)C1CCS(=O)(=O)C1 (centres undefined),IC50,[2],> 100 µM (inactive)
COc1ccc(S(=O)(=O)Nc2ccc3c(c2)CC(=O)N([C@@H](C)CO)C[C@H](C)[C@@H](CN(C)Cc2ccc(-c4ccccc4)cc2)O3)cc1,AC50,[1],2.07 µM (active)
CC(C)CN=C(S)NC1CC2CCCC(C1)N2C1CCCCC1 (centres undefined),EC50,[3],> 120 µM (not active)
same,EC50,[4],> 120 µM (not active)
same,EC50,[5],44.3 µM (active)
Cn1c(-c2ccc(F)cc2)cnc1NCc1ccc(F)cc1F,EC50,[6],2.66 µM (active)
CCc1nc2ccc(C(=O)NCCCn3ccnc3)cn2c1N(C)Cc1cc2ccccc2s1,AC50,[7],74.3 µM (active)
COc1ccc(C(=O)NCCc2c[nH]c3ccccc23)cc1S(=O)(=O)N1CCCCC1C (centres undefined),AC50,[7],2.97 µM (active)
C[C@H]1CN([C@@H](C)CO)C(=O)c2cc(NC(=O)Nc3ccc(C(F)(F)F)cc3)ccc2O[C@H]1CN(C)Cc1ccc2c(c1)OCO2,AC50,[1],4.18 µM (active)
C[C@H]1CN([C@@H](C)CO)C(=O)Cc2cc(NC(=O)Cc3ccccc3)ccc2O[C@H]1CN(C)Cc1ccc(-c2ccccc2)cc1,AC50,[1],2.79 µM (active)
O=C(Cn1c2ccccc2c(=O)c2cc([N+](=O)[O-])ccc21)Nc1ccccc1Cl,EC50,[8],> 150 µM (not active)
same,EC50,[9],> 150 µM (not active)
same,EC50,[10],> 75 µM (inconclusive)
same,EC50,[11],> 150 µM (inconclusive)
Cc1cccc(S(=O)(=O)N/N=c2\sc3ccccc3n2C)c1,EC50,[3],5.13 µM (active)
same,EC50,[4],10.1 µM (active)
same,EC50,[5],23.2 µM (active)
O=C(CSc1nc(O)c(C2CCCCC2)c(O)n1)NCC1CCCO1 (centres undefined),IC50,[2],> 100 µM (inactive)
CC(Sc1nnc(-c2cccnc2)n1-c1ccccc1)C(=O)NCc1ccc2c(c1)OCO2 (centres undefined),EC50,[3],9.46 µM (active)
same,EC50,[4],16.5 µM (active)
same,EC50,[5],38 µM (active)
Oc1ccc(/C=N/n2c(S)nnc2COc2ccccc2)cc1O,EC50,[12],24.6 µM (active)
same,EC50,[13],> 38 µM (not active)
same,IC50,[14],6.29 µM (active)
same,IC50,[15],2.1 µM (active)
same,AC50,[16],5 nM (active)
CCn1c(=O)c([N+](=O)[O-])c(N2CCN(Cc3ccc4c(c3)OCO4)CC2)c2ccccc21,AC50,[17],26.1 µM (active)
same,IC50,[18],1.8 µM (active)
CCC(c1nnnn1CCOC)N1CCN(Cc2ccccc2)CC1 (centres undefined),IC50,[2],> 100 µM (inactive)
O=C(Nc1ccc2c(c1)OCO2)c1ccc(Br)o1,EC50,[3],0.165 µM (active)
same,EC50,[4],> 120 µM (not active)
same,EC50,[5],> 120 µM (not active)
C[C@@H]1CN([C@H](C)CO)C(=O)Cc2cc(NS(=O)(=O)c3ccc(Cl)cc3)ccc2O[C@@H]1CN(C)Cc1ccc(Cl)c(Cl)c1,AC50,[1],3.44 µM (active)
CC1=NN(c2ccccc2)C(=O)/C1=C/c1ccc[nH]1,IC50,[19],33 µM (active)
CC(C)NC(=O)Nc1ccc2c(c1)C(=O)N([C@H](C)CO)C[C@@H](C)[C@@H](CN(C)C(=O)CCC(F)(F)F)OCCCC[C@@H](C)O2,AC50,[20],< 260 nM (active)
same,AC50,[21],1.02 µM (active)
CC(NC(=O)c1ccco1)C(c1cccs1)N1CCN(c2ccccc2)CC1 (centres undefined),EC50,[6],0.376 µM (active)
CNc1sc(C(=O)c2ccccc2F)c(N)c1-c1nc2ccccc2s1,IC50,[22],4.92 µM (active)
same,IC50,[23],> 66 µM (inactive)
same,IC50,[24],49.5 µM (inactive)
O=C(Nc1cccc2ccccc12)c1onc2c1CCCC2,EC50,[3],0.192 µM (active)
same,EC50,[4],78.7 µM (active)
same,EC50,[5],> 120 µM (not active)
CSC(=NCCCN1CCOCC1)NS(=O)(=O)c1cccs1,IC50,[2],> 100 µM (inactive)
COC(=O)c1cn(NC(=O)C2COc3ccccc3O2)c(=O)c2ccccc12 (centres undefined),IC50,[2],> 100 µM (inactive)
Cc1ccc(C(C(=O)NC(C)(C)C)N(C(=O)CCC(=O)Nc2ccccn2)c2ccccc2F)cc1 (centres undefined),EC50,[6],2.99 µM (active)
COC(=O)CSc1nnc(SCc2ccc(OC)cc2)s1,IC50,[2],> 100 µM (inactive)
C[C@@H]1CN([C@H](C)CO)C(=O)c2cc(NC(=O)Nc3cccc4ccccc34)ccc2O[C@H]1CN(C)Cc1ccc(-c2ccccc2)cc1,AC50,[1],2.17 µM (active)
